Three compounds from patent EP0903341A1, “"Novel ortho-mercaptoaniline compounds"” (Akzo Nobel N.V., priority 1997, dated 1999) can be followed below.

For test [1], the system named is Entamoeba histolytica 200: NIH or E-32. Put plainly: Anti-amoebic action in vitro (axenic culture, minimum inhibitory concentration). The format is cell-based. The settings on record: axenic culture in TYI-S-33 medium, 48 h incubation with compound at 37°C, amoebae counted by microscope, read-out: minimum concentration active in killing the amoeba. As to the method: Axenic Entamoeba histolytica cultures were grown in glass, screw-capped tubes (16x100 mm) containing about 10 ml complete growth medium TYI-S-33. The tubes were inoculated with 0.5 ml of a 72 h old axenic culture of Entamoeba histolytica 200: NIH or E-32, obtained from an external supplier (Kothari Research Centre, Calcutta, India). After incubation for 24 h at 37°C compounds to be tested were added at desired concentrations. Incubation of the tubes was continued for an additional 48 h. The number of amoebae in the medium were counted by microscopic examination at 100x magnification. The complete growth medium TYI-S-33 medium was prepared by mixing aseptically 9 ml of a nutrient solution, 1 ml of animal serum, 0.3 ml of a vitamin mixture and 0.05 ml of a solution containing the antibiotics streptomycine and benzylpenicillin. The composition of TYI-S-33 medium and method of preparation is described in detail by Diamond (J Parasitology 54:1047-1056, 1968). Test compounds are tested at different concentrations, the highest is 100 µg/ml. Lower concentrations are tested in successive tests until the minimum inhibitory concentration is reached. The reference compounds tinidazole was active in killing the amoeba at a minimum concentration of 1.5 µg/ml. Compound B of this invention was active in killing the amoeba at a minimum concentration of 3.1 µg/ml.

Another test has as its system Entamoeba histolytica. Put plainly: Anti-amoebic action in vivo in rats infected in the caecum (cure index). The following applies: for cure index: five days.

≈ marks a conversion by molar mass, not a printed value.

Turning to `CCS(=O)(=O)CCn1c([N+](=O)[O-])cnc1C` [Tinidazole, reference compound], the MIC in test [1] was found to be 1.5 µg/mL (≈ 6.07 µM). Moreover, the cure index in the test with Entamoeba histolytica (Dose 75 mg/kg oral) is listed as 51 ± 8 percentage of the control group; in the test on Entamoeba histolytica (Dose 150 mg/kg oral), 66 ± 5 percentage of the control group; in the test on Entamoeba histolytica (Dose 200 mg/kg oral), 81 ± 5 percentage of the control group.

With `COc1ccc(CCNCCC(=O)N(C)c2ccccc2SC)cc1OC` [Compound A, 3-[2-(3,4-dimethoxyphenyl)ethylamino]-N-methyl-N-[(2-methylthio)phenyl]-propionamide], the cure index in the test with Entamoeba histolytica (Dose 9 mg/kg oral) is 23 percentage of the control group; with Entamoeba histolytica (Dose 18.8 mg/kg oral), 34 percentage of the control group; in the test with Entamoeba histolytica (Dose 37.5 mg/kg oral), 56 ±5 percentage of the control group; with Entamoeba histolytica (Dose 75 mg/kg oral), 76 ±6 percentage of the control group; with Entamoeba histolytica (Dose 100 mg/kg oral), 74 ± 10 percentage of the control group. The “increase in cure index (in words)” value in the test on Entamoeba histolytica (doses of 9 or 20 mg/kg per day, oral) is recorded as “No increase in cure index”.

On to `COc1ccc(CSc2ccccc2N(C)CCCN(C)CCc2ccc(OC)c(OC)c2)cc1` [Compound B, N-[2-(3,4-dimethoxyphenyl)ethyl]-N-methyl-N'-[2-(4-methoxyphenyl)methylthiophenyl]-N'-methyl-1,3-diaminopropane], for which the MIC in test [1] stood at 3.1 µg/mL (≈ 6.27 µM).
